According to patent US7101915B1, “P-terphenyl compounds” (Shionogi & Co., Ltd., priority 1996, dated 2006):
Converted amounts (≈) assume the structure as drawn.

Columns and labels:
Assay type in all cases: cell-based
[1] = system: mouse thymoma strain EL4 cells; experiment: Anti-proliferative activity on EL4 cells (MTT); conditions: 3 days
Experimental: Experiment 2 Anti-Proliferative Activity on EL4 Cells
In 96-well microtiter plate 4×10^4/0.1 ml of mouse thymoma strain EL4 cells were added and 0.1 ml of the compound of the present invention was added to the mixture so that the concentration was in the range of 0-5,000 ng/ml. After the cultivation for 3 days, the IC50 was calculated by the MTT method as described in Experiment 1.

[2] = system: C3H/HeN mouse splenocytes stimulated with lipopolysaccharide (LPS); experiment: Suppressive effect on mitogenic activity of mouse splenocytes in vitro, LPS as mitogen (MTT); conditions: LPS 10 μg/ml as mitogen, 3 days
Experimental: (§1) Experiment 1 Suppressive Effect on a Mitogenic Activity of Mouse Splenocytes In Vitro
(§2) In 96-well microtiter plate 5×10^5 C3H/HeN mouse splenocytes suspended in 0.1 ml of 10% fetal bovine serum-fortified RPMI 1640 medium containing 2 mM of sodium bicarbonate, 50 units/ml of penicillin, 50 μg/ml of streptomycin and 5×10^−5 M of 2-mercaptoethanol were added. Then, 5 μg/ml of Concanavalin A (Con A) or 10 μg/ml of lipopolysaccharide (LPS) as a mitogen and the compound of a pre-determined concentration of the present invention were added to each well so that a final volume of each well reached 0.2 ml. Each compound of the present invention was dissolved in dimethylsulfoxide (DMSO) and diluted with the above RPMI 1640 medium to adjust the final concentration of 100 ng/ml or less. The splenocytes in the 96-well microtiter plate were cultivated at 37° C. for 3 days in an incubator keeping the humidity 100%, carbon dioxide 5% and air 95%. Then, 25 μl of 6 mg/ml MTT [3-(4,5-dimethylthiazol-2-yl)-2,5-diphenyltetrazolium bromide] (Sigma) was added to the each well and cultivated at 37° C. for 4 hours under the same conditions. After the cultivation, 50 μl of 0.02 N hydrochloric acid in 20% sodium dodecyl sulfate (SDS) was added to formazan generated and left at 37° C. for 24 hours for dissolving formazan. An absorption intensity (OD) of formazan generated in proportion to the number of living cells was measured with an immunoreader (InterMed) equipped with a 570 nm filter (The Journal of Immunological Method, 65, 55-63, 1983). The 50% inhibitory concentration of a cell proliferation (IC 50) was calculated from a correlation between the concentration of the compound of the present invention and the absorption intensity.

[3] = system: C3H/HeN mouse splenocytes stimulated with Concanavalin A (Con A); experiment: Suppressive effect on mitogenic activity of mouse splenocytes in vitro, Con A as mitogen (MTT); conditions: Con A 5 μg/ml as mitogen, 3 days
Experimental: as §1, §2

[4] = system: IL-4 production of mouse T cell strain EL-4 (TPA); experiment: Suppressive effect on the cytokine production of mouse T cell strain EL-4: IL-4; conditions: EL-4, TPA 10 ng/ml, 24 hours, ELISA
Experimental: (§3) Experiment 8 Suppressive Effect on the Cytokine Production of a Mouse T Cell Strain EL-4 In 48-well plate were added 2×10^5 mouse T cell strain EL-4 which were suspended in 0.2 ml of 1% fetal bovine serum-added RPMI 1640 medium (2 mM of sodium bicarbonate, 50 units/ml of penicillin, 50 μg/ml of streptomycin and 5×10^−5 M of 2-mercaptoethanol were added) and the compound of the present invention of a predetermined concentration. TPA was added as a cell stimulater at a final concentration of 10 ng/ml to adjust a final volume of each well to 0.4 ml. Each compound of the present invention was dissolved in DMSO and diluted with the above RPMI 1640 medium, and then for added at a final concentration of 100 ng/ml or less. The cells in the 48-well plate were cultivated in an incubator keeping the humidity 100%, carbon dioxide 5% and air 95% at 37° C. for 24 hours to collect a supernatant of each well. The amount of IL-2, IL-4 and IL-5 released in the medium of each well were measured with the ELISA kit (Amersham K. K.) to be taken as an index of the cytokine production of the cells. TPA free group (-TPA) was used as a control.

[5] = system: IL-5 production of mouse T cell strain EL-4 (TPA); experiment: Suppressive effect on the cytokine production of mouse T cell strain EL-4: IL-5; conditions: EL-4, TPA 10 ng/ml, 24 hours, ELISA
Experimental: as §3

[6] = system: IL-2 production of mouse T cell strain EL-4 (TPA); experiment: Suppressive effect on the cytokine production of mouse T cell strain EL-4: IL-2; conditions: EL-4, TPA 10 ng/ml, 24 hours, ELISA
Experimental: as §3

EL-4 IC50 [1] | IC50 IL-4 [4] | IC50 IL-5 [5] | IC50 IL-2 [6] | SMILES | LPS IC50 [2] | ConA IC50 [3]
0.0675 mg/L |  |  |  | C=CCOc1ccc(-c2c(OC)cc(-c3ccc(O)cc3)c(OC)c2O)cc1O [Compound I-46] | 0.0239 mg/L | 0.0106 mg/L
0.0462 mg/L |  |  |  | COc1cc(-c2ccc(O)cc2)c(OC)c(CO)c1-c1ccc(OCC=C(C)C)c(OS(C)(=O)=O)c1 [Compound I-12] | 0.0028 mg/L | 0.0013 mg/L
0.0234 mg/L |  |  |  | COc1cc(-c2ccc3c(c2)OCO3)c(OC)c(O)c1-c1ccc(OCC=C(C)C)c(O)c1 [Compound I-62] | 0.025 mg/L | 0.0292 mg/L
0.012 mg/L |  |  |  | COCOc1c(OC)c(-c2ccc(OC)cc2)cc(OC)c1-c1ccc(OCc2ccccc2)c(O)c1 [Compound I-107] | 0.0007 mg/L | 0.0006 mg/L
<0.02 mg/L |  |  |  | COc1cc(-c2ccc(O)cc2)c(OC)c(O)c1-c1ccc(OCc2ccco2)c(O)c1 [Compound I-211] | <0.02 mg/L | <0.02 mg/L
0.312 mg/L |  |  |  | COc1cc(-c2c(OC)cc(-c3ccc(OS(C)(=O)=O)cc3)c(OC)c2OS(C)(=O)=O)ccc1OCC=C(C)C [Compound I-248] | <0.01 mg/L | <0.01 mg/L
0.0046 mg/L |  |  |  | COc1cc(-c2ccc(O)cc2)c(OC)c(O)c1-c1ccc(OC/C=C/Br)c(O)c1 [Compound I-103] | 0.0037 mg/L | 0.0034 mg/L
0.0136 mg/L |  |  |  | COc1cc(-c2ccc(O)cc2)c(OC)c(O)c1-c1ccc(OC/C=C(/C)CO)c(O)c1 [Compound I-299] | 0.00785 mg/L | 0.00553 mg/L
0.0119 mg/L |  |  |  | C/C=C\COc1ccc(-c2c(OC)cc(-c3ccc(O)cc3)c(OC)c2O)cc1O [Compound I-50] | 0.0092 mg/L | 0.00383 mg/L
0.2 mg/L |  |  |  | COc1ccccc1-c1cc(OC)c(-c2ccc(OCC=C(C)C)c(O)c2)c(O)c1OC [Compound I-276] | 0.0031 mg/L | 0.0018 mg/L
0.0027 mg/L |  |  |  | COc1cc(-c2ccc(O)cc2)c(OC)c(C)c1-c1ccc(OCC=C(C)C)c(O)c1 [Compound I-106] | 0.0004 mg/L | 0.0006 mg/L
<0.02 mg/L |  |  |  | COc1cc(-c2ccc(N(C)C)cc2)c(OC)c(O)c1-c1ccc(OCC=C(C)C)c(O)c1 [Compound I-255] | <0.02 mg/L | <0.02 mg/L
<0.02 mg/L |  |  |  | CC/C=C\COc1ccc(-c2c(OC)cc(-c3ccc(O)cc3)c(OC)c2O)cc1O [Compound I-9] | <0.02 mg/L | <0.02 mg/L
0.124 mg/L |  |  |  | COc1cc(-c2ccc(C(C)C)cc2)c(OC)c(OS(C)(=O)=O)c1-c1ccc(OCc2ccccc2)c(O)c1 [Compound I-361] | <0.02 mg/L | <0.02 mg/L
0.0374 mg/L |  |  |  | CC#CCOc1ccc(-c2c(OC)cc(-c3ccc(O)cc3)c(OC)c2O)cc1O [Compound I-40] | 0.0165 mg/L | 0.0061 mg/L
 | 0.001 to 0.01 mg/L | >1 mg/L | >1 mg/L | COc1cc(-c2ccc(OS(C)(=O)=O)cc2)c(OC)c(OS(C)(=O)=O)c1-c1ccc(OS(=O)(=O)c2ccc(C)cc2)c(OS(C)(=O)=O)c1 [Compound I-395] |  | 
 | 0.029 mg/L (≈ 0.0614 µM) | 0.01 mg/L (≈ 0.0212 µM) | >0.5 mg/L | COc1cc(-c2ccc(O)cc2)c(OC)c(O)c1-c1ccc(OCc2ccc(C)cc2C)c(O)c1 [Compound I-309] |  | 

EL-4 IC50 [1] | IC50 IL-4 [4] | IC50 IL-5 [5] | IC50 IL-2 [6] | SMILES | LPS IC50 [2] | ConA IC50 [3]
 | 0.007 mg/L (≈ 0.0143 µM) | 0.11 mg/L (≈ 0.224 µM) | >0.5 mg/L | COc1cc(-c2ccc(O)cc2)c(OC)c(O)c1-c1ccc(OC/C=C(\C)CCC=C(C)C)c(O)c1 [Compound I-37] |  | 
 | 0.013 mg/L (≈ 0.0212 µM) | 0.02 mg/L (≈ 0.0326 µM) | >1 mg/L | COc1cc(-c2ccc(OS(C)(=O)=O)cc2)c(OC)c(C)c1-c1ccc(OCc2ccc(C)cc2)c(OS(C)(=O)=O)c1 [Compound I-230] |  | 
 | 0.013 mg/L (≈ 0.0172 µM) | >1 mg/L | >1 mg/L | COc1cc(-c2ccc(OS(C)(=O)=O)cc2)c(OC)c(OS(C)(=O)=O)c1-c1ccc(OCc2ccc(-c3ccccc3)cc2)c(OS(C)(=O)=O)c1 [Compound I-403] |  | 
 | 0.052 mg/L (≈ 0.0713 µM) | 0.023 mg/L (≈ 0.0315 µM) | >1 mg/L | COc1cc(-c2ccc(OS(C)(=O)=O)cc2)c(OC)c(OS(C)(=O)=O)c1-c1ccc(OCc2ccc3ccccc3n2)c(OS(C)(=O)=O)c1 [Compound I-307] |  | 
 | 0.035 mg/L (≈ 0.0545 µM) | >1 mg/L | >1 mg/L | COC(=O)c1ccc(-c2cc(OC)c(-c3ccc(OCc4ccccc4)c(OS(C)(=O)=O)c3)c(OS(C)(=O)=O)c2OC)cc1 [Compound I-238] |  | 
 | 0.016 mg/L (≈ 0.0347 µM) | 0.045 mg/L (≈ 0.0975 µM) | 1 mg/L (≈ 2.17 µM) | COc1cc(-c2ccc(O)cc2)c(OC)c(O)c1-c1ccc(SCc2ccccn2)c(O)c1 [Compound I-223] |  | 
 | 0.075 mg/L (≈ 0.13 µM) | 0.04 mg/L (≈ 0.0694 µM) | >1 mg/L | COc1cc(-c2ccc(OS(C)(=O)=O)cc2)c(OC)c(OS(C)(=O)=O)c1-c1ccc(OCCC=C(C)C)cc1 [Compound I-387] |  | 
 | 0.01 mg/L (≈ 0.0139 µM) | 0.34 mg/L (≈ 0.472 µM) | >1 mg/L | COc1cc(-c2ccc(OS(C)(=O)=O)cc2)c(OC)c(OS(C)(=O)=O)c1-c1ccc(OCc2ccc(C(C)C)cc2)c(OS(C)(=O)=O)c1 [Compound I-305] |  | 
 | 0.1 mg/L (≈ 0.159 µM) | 11 mg/L (≈ 17.5 µM) | >10 mg/L | COc1cc(-c2ccc(OS(C)(=O)=O)cc2)c(OC)c(OS(C)(=O)=O)c1-c1ccc(OCc2ccccc2)c(C(N)=O)c1 [Compound I-148] |  | 
 | 0.012 mg/L (≈ 0.0253 µM) | 0.0038 mg/L (≈ 0.00801 µM) | >1 mg/L | COc1cc(-c2ccc(SC)cc2)c(OC)c(O)c1-c1ccc(OCc2ccccc2)c(O)c1 [Compound I-233] |  | 
 | 0.017 mg/L (≈ 0.0349 µM) | 0.1 mg/L (≈ 0.206 µM) | >0.1 mg/L | COC(=O)c1ccc(-c2cc(OC)c(-c3ccc(OCc4ccccc4)c(O)c3)c(O)c2OC)cc1 [Compound I-237] |  | 
 | 0.021 mg/L (≈ 0.0356 µM) | 0.03 mg/L (≈ 0.0508 µM) | >1 mg/L | COc1cc(-c2ccc(OS(C)(=O)=O)cc2)c(OC)c(C)c1-c1ccc(OCCC=C(C)C)c(OS(C)(=O)=O)c1 [Compound I-228] |  | 
 | 0.007 mg/L (≈ 0.0148 µM) | 0.01 mg/L (≈ 0.0211 µM) | >0.1 mg/L | COc1cc(-c2ccc(C(F)(F)F)cc2)c(OC)c(O)c1-c1ccc(OCC=C(C)C)c(O)c1 [Compound I-190] |  | 
 | 0.038 mg/L (≈ 0.0875 µM) | 0.09 mg/L (≈ 0.207 µM) | >1 mg/L | COc1cc(-c2ccc(C)cc2)c(OC)c(O)c1-c1ccc(OCCC=C(C)C)c(O)c1 [Compound I-279] |  | 
 | 0.025 mg/L (≈ 0.0573 µM) | 0.023 mg/L (≈ 0.0527 µM) | >1 mg/L | COc1cc(-c2ccc(O)cc2)c(OC)c(O)c1-c1ccc(OCC(C)=C(C)C)c(O)c1 [Compound I-213] |  | 
 | <0.005 mg/L | 0.13 mg/L (≈ 0.275 µM) | >0.5 mg/L | COc1ccccc1-c1cc(OC)c(-c2ccc(OCc3ccc(C)cc3)c(O)c2)c(O)c1OC [Compound I-282] |  | 
